Consider two compounds from US8207226B1, “Use of FAAH antagonists for treating dry eye and ocular pain” (Alcon Research, Ltd., priority 2008, dated 2012).

The test system of this series is cornea (capsaicin-induced blinking). It is filed as in vivo, Sprague-Dawley rats. The note with it: for reduction of blink rate elicited by capsaicin: topical ocular dosing in 10% cyclodextrin vehicle 5 min before capsaicin (5 μL of 0.0005%), seven week old Sprague-Dawley rats, blinks counted for one minute. The source says: A capsaicin blink test was used to determine the pharmacological effect of two fatty acid amides, oleamide and anandamide. The test measured the pain response of the cornea by the number of times the animal blinked after the application of capsaicin.
Lyophilized anandamide was resuspended in an aqueous 10% cyclodextrin solution that was buffered with an aliquot of 10× phosphate buffered saline (PBS) (Laine et. al., 2001, Pharmaceutical Research. 18:494-499). The test article, either cyclodextrin vehicle or fatty acid amide (FAA), was dosed to both eyes of seven week old Sprague-Dawley rats (n=8, per group) five minutes prior to the application of capsaicin. Blinks were counted after the application of anandamide. Animals were dosed with 5 μL of vehicle in OS eye. After a 5-second period, blinks were counted for one minute. Capsaicin (5 μL of 0.0005%) was dosed in the OD eye. Blinks were counted in the same manner as the OS eye.

On to `CCCCCCCC/C=C\CCCCCCCC(N)=O` [Oleamide, oleamide], for which the “reduction of blink rate elicited by capsaicin” value is given as 20%. Also, the “solubility in the 10% cyclodextrin vehicle” value (rat, in vivo) is reported as “only partial solubility”.
As to `CCCCC/C=C\C/C=C\C/C=C\C/C=C\CCCC(=O)NCCO` [anandamide], the “reduction of blink rate elicited by capsaicin” value was 50%. Under “rat, in vivo”, the “blinking after test article alone (before capsaicin application)” value is recorded as “rapid blinking for approximately one minute, followed by normal rates of blinking”.
